≈ marks a conversion by molar mass, not a printed value. Positions of bridges follow the written chain, without caps; N, C: chain ends. Non-standard residues stand in square brackets, D forms with d. Residues, ends and D or L forms follow the SMILES beside them. *: point of attachment. S(2-cyclohexylethyl) = C1CCC(CCS*)CC1; Dab = NCC[C@H](N)C(=O)O; X1 = CC(C)CCCCS*
Tests used:
[1] = system: A. baumannii (ATCC 19606); format: cell-based; details: ATCC 19606
Method: (§1) Minimum inhibitory concentrations (MICs) on relevant Gram-negative bacteria were determined by broth microdilution, in accordance with CLSI guidelines. Indicated bacteria were taken from glycerol stocks and incubated overnight on blood agar at 37 °C. Well-isolated colonies were taken, suspended in TSB (5 mL), and grown to an OD600 of 0.5. Compounds to be tested were dissolved in DMSO (6.4 mg/mL), diluted in cation-adjusted Mueller–Hinton Broth (CAMHB) (12.5 and 20 μg/mL Mg^2+ and Ca^2+, respectively), and diluted serially on polypropylene microtiter plates. To the diluted compounds (50 μL per well) was added 50 μL of relevant bacterial suspension, to yield a final concentration of 10^6 CFU/mL. Plates were covered by adhesive gas-permeable membranes and incubated at 37 °C. MIC was read out as the lowest concentration that inhibited visual bacterial growth. Shown values are consistent results from at least duplicate experiments.

E. coli (ATCC 25922) = format: cell-based; details: ATCC 25922
Method: as §1

[2] = system: K. pneumoniae (ATCC 13883); format: cell-based; details: ATCC 13883
Method: as §1

[3] = system: P. aeruginosa (ATCC 27853); format: cell-based; details: ATCC 27853
Method: as §1

[4] = system: differentiated conditionally immortalized PTECs (ciPTECs, OAT-1); experiment: ciPTEC toxicity assay (PrestoBlue); format: cell-based, human
Method: ciPTECs (OAT-1) cells,[52],[53] grown to 90–100% confluence, were washed by Hanks’ balanced salt solution (HBSS; Gibco, Life Technologies, Paisley, U.K.) and detached by accutase (4 mL) for 5 min at 37 °C. The cells were then suspended in fresh medium (DMEM/F-12, supplemented with 10% fetal calf serum, insulin (5 μg/mL), transferrin (5 μg/mL), selenium (5 μg/mL) hydrocortisone (35 ng/mL), Epidermal Growth Factor (10 ng/mL) and tri-iodothyronine (40 pg/mL)). Cell density was adjusted to 2.0 × 10^5 cells/mL, of which 100 μL was added to each well of a 96-well plate. The cells were incubated for 24 h at 33 °C, followed by 6 days at 37 °C, in a humidified atmosphere containing 5% (v/v) CO2. The medium was refreshed every second or third day.
Compounds were dissolved and serially diluted in serum-free medium. Differentiated cells were washed once with HBSS and serially diluted compounds (80 μL/well) were transferred to the ciPTEC-containing plate. Compounds were incubated for 24 h at 37 °C; the cells were washed by HBSS, followed by incubation with 10% PrestoBlue cell viability reagent (Thermo Scientific, Vienna, Austria) in HBSS at 37 °C in the dark. Fluorescence was recorded (excitation: 530 nm, emission: 590 nm). Raw data are corrected for PrestoBlue background fluorescence and reported relative to the no-treatment control (cells with medium only). Viability data were fitted with GraphPad Prism software (version 5.03; GraphPad Software, La Jolla, CA), by nonlinear regression with 0 as bottom constraint. Presented data are based on triplicates.
Toxicity assessment on PTECs
Table S1. TC50 values for polymyxin analogues. Toxicity assessment on proximal tubular epithelial cells
performed using PrestoBlue™ assay. TC50 values are derived after non-linear regression analysis on cell viability
correspond to data obtained from 2 different batches of cells/analyses on different days. As the value for
polymyxin B differs 2-fold, values in the manuscript are presented relative to the polymyxin B value.
Compound TC50 (µ M) Compound TC50 (µ M)
Polymyxin B 80 Polymyxin B 41
Figure S3. Representative traces of ciPTECs’ viability after incubation with analogues for 24 hours. Shown data are based on […]

A. baumannii BAA-747 = format: cell-based; details: BAA-747
Method: as §1
(§2) Bacterial strains used for MIC assays and extended MIC assessment
(§3) Strains: The following strains were obtained from BEI Resources, NIAID, NIH: E. Coli M0072, strain
(§4) Table S2. […] Values are given in μg/mL.
(§5) Species Strain ID Resistance Polymyxin B 18b 23a 24a

A. baumannii NRZ-00687 = format: cell-based; details: NRZ-00687
Method: as §1, §2, §3, §4, §5

A. baumannii RUH-134 = format: cell-based; details: RUH-134
Method: as §1, §2, §3, §4, §5

E. coli 1793 = format: cell-based; details: 1793
Method: as §1, §2, §3, §4, §5

E. coli JS136 = format: cell-based; details: JS136
Method: as §1, §2, §3, §4, §5

E. coli M0072 = format: cell-based; details: M0072
Method: as §1, §2, §3, §4, §5

K. pneumoniae ATCC 29665 = format: cell-based; details: ATCC 29665
Method: as §1, §2, §3, §4, §5

K. pneumoniae KP1.53 = format: cell-based; details: KP1.53
Method: as §1, §2, §3, §4, §5

K. pneumoniae RC0045 = format: cell-based; details: RC0045
Method: as §1, §2, §3, §4, §5

P. aeruginosa 2018-007 = format: cell-based; details: 2018-007
Method: as §1, §2, §3, §4, §5

P. aeruginosa 2251 = format: cell-based; details: 2251
Method: as §1, §2, §3, §4, §5

P. aeruginosa ATCC 10145 = format: cell-based; details: ATCC 10145
Method: as §1, §2, §3, §4, §5

P. aeruginosa M120 = format: cell-based; details: M120
Method: as §1, §2, §3, §4, §5

Compound	MIC A. baumannii (ATCC 19606) [1] [µg/mL]	MIC E. coli (ATCC 25922) (E. coli (ATCC 25922)) [µg/mL]	MIC K. pneumoniae (ATCC 13883) [2] [µg/mL]	MIC P. aeruginosa (ATCC 27853) [3] [µg/mL]	TC50, Day 2 [4] [µM]	ciPTEC Toxicity Index (relative to polymyxin B) [4]	MIC A. baumannii BAA-747 (A. baumannii BAA-747) [µg/mL]	MIC A. baumannii NRZ-00687 (A. baumannii NRZ-00687) [µg/mL]	MIC A. baumannii RUH-134 (A. baumannii RUH-134) [µg/mL]	MIC E. coli 1793 (E. coli 1793) [µg/mL]	MIC E. coli JS136 (E. coli JS136) [µg/mL]	MIC E. coli M0072 (E. coli M0072) [µg/mL]	MIC K. pneumoniae ATCC 29665 (K. pneumoniae ATCC 29665) [µg/mL]	MIC K. pneumoniae KP1.53 (K. pneumoniae KP1.53) [µg/mL]	MIC K. pneumoniae RC0045 (K. pneumoniae RC0045) [µg/mL]	MIC P. aeruginosa 2018-007 (P. aeruginosa 2018-007) [µg/mL]	MIC P. aeruginosa 2251 (P. aeruginosa 2251) [µg/mL]	MIC P. aeruginosa ATCC 10145 (P. aeruginosa ATCC 10145) [µg/mL]	MIC P. aeruginosa M120 (P. aeruginosa M120) [µg/mL]
CC(C)CCCCSSC[C@H](NC(=O)CN)C(=O)N[C@H](C(=O)N[C@@H](CCN)C(=O)N[C@H]1CCNC(=O)[C@H]([C@@H](C)O)NC(=O)[C@H](CCN)NC(=O)[C@H](CCN)NC(=O)[C@H](CC(C)C)NC(=O)[C@@H](Cc2ccccc2)NC(=O)[C@H](CCN)NC1=O)[C@@H](C)O [Compound 24a] (H-GC(X1)T[Dab][Dab][Dab][dF]L[Dab][Dab]T; lactam 5-C)	1 (≈ 0.798 µM)	2 (≈ 1.6 µM)	1 (≈ 0.798 µM)	2 (≈ 1.6 µM)	327	8.0	1 (≈ 0.798 µM)	1 (≈ 0.798 µM)	1 (≈ 0.798 µM)	1 (≈ 0.798 µM)	1 (≈ 0.798 µM)	1 (≈ 0.798 µM)	1 (≈ 0.798 µM)	2 (≈ 1.6 µM)	1 (≈ 0.798 µM)	16 (≈ 12.8 µM)	2 (≈ 1.6 µM)	4 (≈ 3.19 µM)	2 (≈ 1.6 µM)
CC(C)C[C@@H]1NC(=O)[C@@H](Cc2ccccc2)NC(=O)[C@H](CCN)NC(=O)[C@@H](NC(=O)[C@H](CCN)NC(=O)[C@@H](NC(=O)[C@H](CSSCCC2CCCCC2)NC(=O)CN)[C@@H](C)O)CCNC(=O)[C@H]([C@@H](C)O)NC(=O)[C@H](CCN)NC(=O)[C@H](CCN)NC1=O [Compound 23a] (H-GC(S(2-cyclohexylethyl))T[Dab][Dab][Dab][dF]L[Dab][Dab]T; lactam 5-C)	1 (≈ 0.79 µM)	1 (≈ 0.79 µM)	1 (≈ 0.79 µM)	1 (≈ 0.79 µM)	391	9.5	1 (≈ 0.79 µM)	0.5 (≈ 0.395 µM)	1 (≈ 0.79 µM)	0.5 (≈ 0.395 µM)	0.5 (≈ 0.395 µM)	0.5 (≈ 0.395 µM)	1 (≈ 0.79 µM)	2 (≈ 1.58 µM)	1 (≈ 0.79 µM)	8 (≈ 6.32 µM)	2 (≈ 1.58 µM)	2 (≈ 1.58 µM)	2 (≈ 1.58 µM)
CC(C)CCCCSSC[C@@H](N)C(=O)N[C@H](C(=O)N[C@@H](CCN)C(=O)N[C@H]1CCNC(=O)[C@H]([C@@H](C)O)NC(=O)[C@H](CCN)NC(=O)[C@H](CCN)NC(=O)[C@H](CC(C)C)NC(=O)[C@@H](Cc2ccccc2)NC(=O)[C@H](CCN)NC1=O)[C@@H](C)O [Compound 20b] (H-[dC](X1)T[Dab][Dab][Dab][dF]L[Dab][Dab]T; lactam 4-C)	2 (≈ 1.67 µM)	4 (≈ 3.34 µM)	2 (≈ 1.67 µM)	16 (≈ 13.4 µM)	135	3.3													
